Source: patent US12350270B2, “Antimalarial agents” (Merck Sharp & Dohme LLC, priority 2019, dated 2025)

System: parasites (ring stage, in human red blood cell culture)
Test: Parasite LDH growth assay (antiparasite potency, Parasite Assay)
Assay type: cell-based, Plasmodium falciparum
Conditions: 0.7% rings, 2% haematocrit, 72 hours at 37° C., LDH readout of parasite growth
Outline: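 Growth was read by an LDH assay after a freeze–thaw cycle (−80 °C overnight, 4 h thaw at RT). Before that, parasites grew with compound for 72 h at 37 °C under gassed, humidified conditions. The input was a ring-stage culture adjusted to 0.7% parasitemia and 2% haematocrit in serum (5%)/albumax (0.5%)-supplemented RPMI-Hepes.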

| Compound | EC50 [nM] |
| --- | --- |
| CCC1(CC)CC(=O)N([C@H]2c3cc(C(=O)N[C@@H]4c5ccccc5OC(C)(C)[C@H]4O)ccc3OCC2OC)C(=N)N1 (stereo partly drawn) [Example 67A, (3R,4S)-4-(4,4-diethyl-2-imino-6-oxotetrahydropyrimidin-1(2H)-yl)-N-((3S,4R)-3-hydroxy-2,2-dimethylchroman-4-yl)-3-methoxychromane-6-carboxamide] | 170 |
| CCC1(CC)CC(=O)N([C@H]2c3cc(C(=O)N[C@@H]4c5ccccc5OC(C)(C)[C@H]4O)ccc3OCC2OC)C(=N)N1 (stereo partly drawn) [Example 67B, (3R,4S)-4-(4,4-diethyl-2-imino-6-oxotetrahydropyrimidin-1(2H)-yl)-N-((3S,4R)-3-hydroxy-2,2-dimethylchroman-4-yl)-3-methoxychromane-6-carboxamide] | 0.8 |
| CCC1(CC)CC(=O)N([C@H]2c3cc(C(=O)N[C@@H]4c5ccccc5C[C@H]4O)ccc3OC[C@@H]2OC)C(=N)N1 [Example 69A, (3R,4S)-4-(4,4-diethyl-2-imino-6-oxotetrahydropyrimidin-1(2H)-yl)-N-((1R,2R)-2-hydroxy-2,3-dihydro-1H-inden-1-yl)-3-methoxychromane-6-carboxamide] | 2.6 |
| CCC1(CC)CC(=O)N([C@@H]2CCS(=O)(=O)c3ccc(C(=O)N[C@H]4CC(C)(C)Oc5ccccc54)cc32)C(=N)N1 [Example 70A, (R)-4-(4,4-diethyl-2-imino-6-oxotetrahydropyrimidin-1(2H)-yl)-N-((S)-2,2-dimethylchroman-4-yl)thiochromane-6-carboxamide 1,1-dioxide] | 9.3 |
| CCC1(CC)CC(=O)N([C@H]2c3cc(C(=O)N[C@@H]4c5ccccc5C[C@H]4O)ccc3OCC2OC)C(=N)N1 (stereo partly drawn) [Example 72A, (3R,4S)-4-(4,4-diethyl-2-imino-6-oxotetrahydropyrimidin-1(2H)-yl)-N-((lR,2R)-2-hydroxy-2,3-dihydro-1H-inden-1-yl)-3-methoxychromane-6-carboxamide] | 0.5 |
| CCC1(CC)CC(=O)N([C@H]2c3cc(C(=O)NC4c5ccccc5CC4(C)O)ccc3OC2(C)COC)C(=N)N1 (stereo partly drawn) [Example 76A, (2S,3S)-3-(4,4-diethyl-2-imino-6-oxotetrahydropyrimidin-1(2H)-yl)-N-(2-hydroxy-2-methyl-2,3-dihydro-1H-inden-1-yl)-2-(methoxymethyl)-2-methyl-2,3-dihydrobenzofuran-5-carboxamide] | 8.5 |
| CCC1(CC)CC(=O)N([C@H]2c3cc(C(=O)NC4c5ccccc5CC4(C)O)ccc3OC2(C)COC)C(=N)N1 (stereo partly drawn) [Example 76B, (2S,3S)-3-(4,4-diethyl-2-imino-6-oxotetrahydropyrimidin-1(2H)-yl)-N-(2-hydroxy-2-methyl-2,3-dihydro-1H-inden-1-yl)-2-(methoxymethyl)-2-methyl-2,3-dihydrobenzofuran-5-carboxamide] | 1.1 |
| CCC1(CC)CC(=O)N([C@H]2c3cc(C(=O)NC4c5ccccc5CC4(C)O)ccc3OC2(C)COC)C(=N)N1 (stereo partly drawn) [Example 77A, (2S,3S)-3-(4,4-diethyl-2-imino-6-oxotetrahydropyrimidin-1(2H)-yl)-N-(2-hydroxy-2-methyl-2,3-dihydro-1H-inden-1-yl)-2-(methoxymethyl)-2-methyl-2,3-dihydrobenzofuran-5-carboxamide] | 57.1 |
| CCC1(CC)CC(=O)N([C@H]2c3cc(C(=O)NC4c5ccccc5CC4(C)O)ccc3OC2(C)COC)C(=N)N1 (stereo partly drawn) [Example 77B, (2S,3S)-3-(4,4-diethyl-2-imino-6-oxotetrahydropyrimidin-1(2H)-yl)-N-(2-hydroxy-2-methyl-2,3-dihydro-1H-inden-1-yl)-2-(methoxymethyl)-2-methyl-2,3-dihydrobenzofuran-5-carboxamide] | 21.4 |

Same assay, conditions: Plasmodium falciparum, Erythrocyte, 72 h, 0.7% rings, 2% haematocrit, 72 hours at 37° C., LDH readout of parasite growth

| Compound | EC50 [nM] |
| --- | --- |
| CC1(C)CC(=O)N([C@@H]2CCOc3ccc(C(=O)N[C@@H]4c5ccccc5C[C@H]4O)cc32)C(=N)N1 [Example 61A, (R)-N-((1R,2R)-2-hydroxy-2,3-dihydro-1H-inden-l-yl)-4-(2-imino-4,4-dimethyl-6-oxotetrahydropyrimidin-1(2H)-yl)chromane-6-carboxamide] | 8.4 |
| CC1(C)CC(=O)N([C@@H]2CCOc3ccc(C(=O)N[C@@H]4c5ccccc5OC(C)(C)[C@H]4O)cc32)C(=N)N1 [Example 62A, (R)-N-((3S,4R)-3-hydroxy-2,2-dimethylchroman-4-yl)-4-(2-imino-4,4-dimethyl-6-oxotetrahydropyrimidin-1(2H)-yl)chromane-6-carboxamide] | 1.2 |
| CCC1(CC)CC(=O)N([C@@H]2CCOc3ccc(C(=O)NC4CC(=O)Oc5ccccc54)cc32)C(=N)N1 (stereo partly drawn) [Example 63A, (4R)-4-(4,4-diethyl-2-imino-6-oxotetrahydropyrimidin-1(2H)-yl)-N-(2-oxochroman-4-yl)chromane-6-carboxamide] | 220 |
| CCC1(CC)CC(=O)N([C@@H]2CCOc3ccc(C(=O)N4Cc5ccccc5C4)cc32)C(=N)N1 [Example 66A, (R)-6,6-diethyl-2-imino-3-(6-(isoindoline-2-carbonyl)chroman-4-yl)tetrahydropyrimidin-4(1H)-one] | 76 |
| CCC1(CC)CC(=O)N([C@H]2c3cc(C(=O)N[C@H]4CC(C)(C)Oc5ccccc54)ccc3OCC2OC)C(=N)N1 (stereo partly drawn) [Example 68A, (3R,4S)-4-(4,4-diethyl-2-imino-6-oxotetrahydropyrimidin-1(2H)-dimethylchroman-4-yl)-3-methoxychromane-6-carboxamide] | 1 |
| CCC1(CC)CC(=O)N([C@@H]2CCS(=O)(=O)c3ccc(C(=O)N[C@@H]4c5ccccc5OC(C)(C)[C@H]4O)cc32)C(=N)N1 [Example 71A, (R)-4-(4,4-diethyl-2-imino-6-oxotetrahydropyrimidin-1(2H)-yl)-N-((3S,4R)-3-hydroxy-2,2-dimethylchroman-4-yl)thiochromane-6-carboxamide 1,1-dioxide] | 3.5 |
| CCC1(CC)CC(=O)N([C@H]2c3cc(C(=O)N[C@@H]4c5ccccc5C[C@H]4O)ccc3O[C@@]2(C)COC)C(=N)N1 [Example 75A, (2R,3S)-3-(4,4-diethyl-2-imino-6-oxotetrahydropyrimidin-1(2H)-yl)-N-((1R,2R)-2-hydroxy-2,3-dihydro-1H-inden-1-yl)-2-(methoxymethyl)-2-methyl-2,3-dihydrobenzofuran-5-carboxamide] | 0.4 |
| CCC1(CC)CC(=O)N([C@H]2c3cc(C(=O)N[C@@H]4c5ccccc5C[C@H]4O)ccc3O[C@]2(C)COC)C(=N)N1 [Example 75B, (2S,3S)-3-(4,4-diethyl-2-imino-6-oxotetrahydropyrimidin-1(2H)-yl)-N-((1R,2R)-2-hydroxy-2,3-dihydro-1H-inden-1-yl)-2-(methoxymethyl)-2-methyl-2,3-dihydrobenzofuran-5-carboxamide] | 9.5 |
| CC1(C)CC(=O)N([C@@H]2CCc3ccc(C(=O)N[C@@H]4c5ccccc5C[C@H]4O)cc32)C(=N)N1 [Example 78, (3R)-N-[(1R,2R)-2-hydroxyindan-1-yl]-3-(2-imino-4,4-dimethyl-6-oxo-hexahydropyrimidin-1-yl)indane-5-carboxamide] | 8.9 |
| CC1(C)CC(=O)N([C@@H]2CCc3ccc(C(=O)N[C@@H]4c5ccccc5C[C@]4(C)O)cc32)C(=N)N1 [Example 79, (3R)-N-[(1R,2S)-2-hydroxy-2-methyl-indan-1-yl]-3-(2-imino-4,4-dimethyl-6-oxo-hexahydropyrimidin-1-yl)indane-5-carboxamide] | 9.6 |
